US20190054067A1, “COMPOSITIONS AND METHODS FOR TREATING COMPULSIVE-LIKE BEHAVIOR IN A SUBJECT” (UNIVERSITY OF THE SCIENCES, priority 2016, published 2019)

Key:
[1] = system: compulsive-like BIG male mice; experiment: compulsive-like marble burying (MB) behavior; type: in vivo, Mus musculus; conditions: for marble-burying behavior (marbles at least 2/3 buried) vs control: acute, 2 h after administration; for suppression of MB vs control: chronic, fifth week (day 31), 2 h after injection
Protocol: Compulsive-like BIG male mice, Mus musculus, were raised on wood shavings in polypropylene cages (27×17×12 cm) under controlled temperature (22±1° C.) and light (12:12 light-dark cycle) with free access to food (Purina Mills, Lab Diet Mouse Diet #5015, St. Louis, Mo.) and water. Animals were approximately 12-16 weeks of age at the start of each experiment.
Deformylflustrabromine hydrochloride (dFBr; Abcam Biochemicals) was dissolved in physiological saline (pH=6.7) to yield final doses of 2.0 mg/kg (0.27 mg/mL), 4 mg/kg (0.53 mg/mL) and 6 mg/kg (0.80 mg/mL). Saline was used as a vehicle control (0 mg/kg). A mouse of 40 g received an injection volume of 0.3 mL. Injection volumes were proportionally adjusted according to the body weight of individual animals.
Acute Study: Male BIG mice were divided into four treatment groups comprising vehicle (sterile saline), 2 mg/kg, 4 mg/kg and 6 mg/kg. Animals in each group (n=12 per group) were tested for nesting on day 1, MB on day 3 and open field (OF) on day 5. On the first day of testing animals randomly received dFBr or vehicle subcutaneously and in subsequent tests received the same dose. Days 2 and 4 were employed to avoid any residual effects of dFBr from previous administration. For nesting, data were collected after 1, 2, 3, 4, 5 and 24 h due to the progressive nature of the NB (The BIG mice typically get excited and indulge in excessive and repetitive NB when introduced to cotton for the first 3-4 h in the light cycle. This excessive and repetitive nesting activity resumes again in the dark cycle). MB and OF behavior was performed 2 h after dFBr administration (FIG. 1).
Chronic Study; Since the foundation of the animal model was established through effective reversal of compulsive-like NB and MB behaviors by chronic fluoxetine treatment, a chronic regimen was also conducted to establish the sustained and long term effects of dFBr on NB and MB. Animals belonging to 0, 2, 4 and 6 mg/kg dose group (n=12 per group) received single subcutaneous injection of dFBr or saline daily for 32 days. NB, MB and OF behaviors were assessed in the final week (weeks 5) after dFBr administration (NB after 1, 2, 3, 4, 5 and 24 h, and MB after 2 h of drug injection). NB was performed on day 30, MB on day 31 and OF on day 32 (FIG. 1).
The marble-burying test is an effective test for determining compulsive-like behavior in mice. […] Two hours after dFBr administration, compulsive-like male mice were individually introduced to a polypropylene cage (37×21×14 cm) containing 20 glass marbles (10 mm in diameter) evenly spaced on 5 cm deep wood chip bedding without access to food or water for 20 min. Testing was carried out in the testing room separate from the housing room. The total number of marbles buried at least ⅔ in the 20-min period was quantified as compulsive-like digging behavior. After the 20-min test, the animals were returned to their home cages.
Statistical analysis was performed in Graphpad Prism (GraphPad Software, Inc) and Statistical Analysis System Software (Version 9.4, Cary, N.C.). Nest-building (grams of cotton), marble burying (number of marbles at least ⅔ buried) and open field measures (time in center and total distance travelled) were expressed as the mean±standard error of the mean (SEM). The nest building data were shown as grams of cotton used, whereas the statistical analysis was conducted on the square-root transformed nesting scores in order to normalize the data (Bult & Lynch, 2000, Behavior Genetics 30:193-206). Nesting scores at different time points, marble burying and open field results were analyzed by one-way analysis of variance (ANOVA), whereas overall drug and drug by time interaction effect between 0-5 hours was done by two-way analysis of variance (ANOVA). Pairwise comparisons for significant differences were tested by the post-hoc Bonferroni multiple comparison test. A probability level of p<0.05 was used as an index of statistical significance in all cases.

[2] = molecular target: low sensitivity (LS) α4β2 receptors (Homo sapiens, UniProt P17787+P43681); conditions: cited from earlier work
[3] = cited from earlier work

Sequence of low sensitivity (LS) α4β2 receptors (P43681 29-627 limits assumed): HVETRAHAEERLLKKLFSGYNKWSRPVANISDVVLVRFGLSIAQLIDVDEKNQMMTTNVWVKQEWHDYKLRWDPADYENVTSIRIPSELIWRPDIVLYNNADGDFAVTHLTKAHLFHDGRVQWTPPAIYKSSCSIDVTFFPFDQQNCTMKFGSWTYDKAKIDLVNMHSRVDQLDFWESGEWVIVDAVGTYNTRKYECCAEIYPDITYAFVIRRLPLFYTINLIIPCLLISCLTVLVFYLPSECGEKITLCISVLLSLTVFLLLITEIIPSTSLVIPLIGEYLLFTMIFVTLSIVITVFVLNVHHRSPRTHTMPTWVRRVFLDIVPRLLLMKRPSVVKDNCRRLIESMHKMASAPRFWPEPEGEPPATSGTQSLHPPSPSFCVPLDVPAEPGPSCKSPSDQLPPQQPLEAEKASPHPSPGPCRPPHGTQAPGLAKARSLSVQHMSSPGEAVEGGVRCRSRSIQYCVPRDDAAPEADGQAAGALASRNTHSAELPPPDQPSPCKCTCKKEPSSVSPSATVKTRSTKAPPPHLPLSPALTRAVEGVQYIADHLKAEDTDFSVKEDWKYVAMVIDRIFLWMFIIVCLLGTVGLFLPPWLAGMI
Sequence of low sensitivity (LS) α4β2 receptors (P17787 26-502): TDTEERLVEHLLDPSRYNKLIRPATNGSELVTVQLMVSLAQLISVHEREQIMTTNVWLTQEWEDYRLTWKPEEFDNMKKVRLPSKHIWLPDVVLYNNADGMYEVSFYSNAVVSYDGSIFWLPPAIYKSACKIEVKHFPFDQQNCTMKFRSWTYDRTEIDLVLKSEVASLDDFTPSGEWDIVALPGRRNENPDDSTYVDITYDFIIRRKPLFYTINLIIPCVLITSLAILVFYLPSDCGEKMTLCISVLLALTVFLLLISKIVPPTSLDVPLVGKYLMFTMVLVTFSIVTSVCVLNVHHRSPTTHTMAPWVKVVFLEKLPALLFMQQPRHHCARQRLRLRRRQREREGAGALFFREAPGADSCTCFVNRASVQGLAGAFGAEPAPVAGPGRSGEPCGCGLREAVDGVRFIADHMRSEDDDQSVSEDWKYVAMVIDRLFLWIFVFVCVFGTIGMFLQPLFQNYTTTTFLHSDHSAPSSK

SMILES: C=CC(C)(C)c1[nH]c2cc(Br)ccc2c1CCNC [dFBr, 2-[6-bromo-2-(2-methylbut-3-en-2-yl)-1H-indol-3-yl]-N-methylethanamine]
- marble-burying behavior (marbles at least 2/3 buried) vs control ([1]; 2 mg/kg s.c.): decreased marble-burying behavior
- marble-burying behavior (marbles at least 2/3 buried) vs control ([1]; 4 mg/kg s.c.): decreased marble-burying behavior
- marble-burying behavior (marbles at least 2/3 buried) vs control ([1]; 6 mg/kg s.c.): decreased marble-burying behavior
- reduction of MB behavior vs control ([1]; chronic regimen, 2 mg/kg, 2 h time point): not significant
- suppression of MB vs control ([1]; 4 mg/kg): maximum suppression of MB
- suppression of MB vs control ([1]; 6 mg/kg): maximum suppression of MB
- potentiation of acetylcholine-induced whole cell responses [2]: 260%
- EC50 ([2]; read-out: EC50 of potentiation): 2.5 µM
- amount reaching the cerebrospinal fluid ([3]; after 90 min of subcutaneous administration): around 36%
- time of peak levels in the cerebrospinal fluid ([3]; rats, after administration): 90 min
